# Results taken from patent publication US20240398775A1, “PHARMACEUTICAL COMPOSITION FOR USE IN TREATING COGNITIVE DECLINE OR FOR USE IN TREATING OVERWEIGHT OR OBESITY” (University of the Ryukyus, priority 2021, published 2024).
# Key:
# GluA1 = assay: BS3 crosslinking assay / Western blot of GluA1 subunit; assay type: in vivo, mouse; conditions: HFD-fed mice treated with PER, n=4; HFD gave 3-fold increase vs CD
# Protocol: Crosslinking using the BS^3 procedure carried out here was carried out based on previously described methods (60). Hippocampal slices of 17 to 18 week old male C57BL/6J background mice (CD, HFD, and HFD with PER treatment) or 12 to 13 week old ob/ob mice (ob/ob, and ob/ob with PER treatment) were prepared as previously reported (56, 57). Hippocampal slices were prepared and collected, and then CA1, CA2, CA3, DG, and EC regions were separated from the hippocampal slices using a dissection knife. […] The total protein concentration of the lysate was measured using the Lowry method (61). […] BS^3 samples were analyzed by SDS-PAGE directly without purification, and surface and intracellular bands were measured in the same lane, thus no normalization was required and sample throughput was improved. […] Membranes were incubated with HRP-labeled anti-rabbit IgG (1:3,000, Cell Signaling Technology, Danvers, MA, USA) for 30 min and extensively washed again with TBS-T. After soaking the membrane in the chemiluminescence detection substrate Chemi-Lumi One (Nacalai Tesque, Tokyo, Japan) for 1 min, luminescence was detected using a LuminoGraph1 imaging system (Atto, Tokyo, Japan). The surface and intracellular bands of each lane were analyzed using a CS Analyzer (Atto, Tokyo, Japan). […]
# Aβ = Aβ accumulation in hippocampus and cerebral cortex of NL-G-F(−/−) mice; assay type: in vivo, mouse; conditions: perampanel 5 mg/kg from 6 to 15 weeks of age
# Description: The effect of perampanel administration on Aβ accumulation in the hippocampal dentate gyrus (DG) CA1 and the cerebral cortex (Cx) in the Alzheimer's dementia model mouse (NL-G-F(−/−)) is shown. The X axis indicates the intensity of fluorescence, and the Y axis indicates the fluorescence count.
# NL-G-F mice = assay: Novel object recognition test in Alzheimer's dementia model mice; assay type: in vivo, mouse; conditions: NL-GF mice (n=5), perampanel 5 mg/kg body weight/day in CD diet from 8 to 13 weeks of age
# Protocol: Mice of CD, HFD, and HFD with PER treatment were handled daily for 5 minutes for 5 days prior to the start of the novel object recognition test. PER means the perampanel, which is an AMPA receptor antagonist. The mice were habituated to a 35 cm square, 25 cm high box for 10 minutes on the first day, and were given 2 identical objects (familiar objects) for 10 minutes on the second day. On the third day, one of the familiar objects was replaced with a novel object of different shape and color (FIG. 2F). […] The search time for each object was measured by offline analysis (47).
# NL-GF mice begin to accumulate in the brain of Aβ from 8 weeks of age (Nat. Neurosci. 2014 17, 661-4). In this example, the AD model mouse (n=5) was fed a CD diet containing a perampanel at a dose of 5 mg/kg body weight/day from 8 to 13 weeks of age, and the mouse was subjected to a novel object recognition test. In the negative control (n=5), a normal CD diet without perampanel was taken.
# NL-G-F(−/−) mice, a dementia model, were administered with memantine (mema), exercise, memantine and exercise, memantine and perampanel, and perampanel alone (5 mg/kg or 10 mg/kg), and subjected to behavioral experiments. As the behavior test, a novel object recognition test and a hippocampus function-dependent fear conditioning test were performed. […]
# Aβ42/Aβ40 = Aβ42/Aβ40 ratio of neurosphere culture supernatant by EIA; assay type: cell-based; conditions: neurospheres from NL-G-F(−/−) mouse embryonic hippocampus, perampanel 50 μM, day 2 and day 4 of culture
# Description: Biomarkers of Alzheimer's dementia include the Aβ42/Aβ40 ratio of cerebrospinal fluid (CSF) and plasma levels, phosphorylated tau (P-tau) in threonines 181 and 217, and neurofilament lite (NfL) (Curr Opin Neurol 2021 1 266-274). The Aβ42/Aβ40 ratio is considered to be able to predict Aβ accumulation in PET (Doecke J D et al., Neurology 2020). Hippocampus on 17 to 19 days of NL-G-F(−/−) mouse embryonic life was taken out and cultured by a Neurosphere method by Brewer G J et al. (Nat Protoc 2007 2, 1490-1498), and a supernatant was measured by an EIA method using this culture system. The change in the Aβ42/Aβ40 ratio by the perampanel (50 μM/methyl cellulose 4 μL) was analyzed. In 4 μL of a 0.5 w/v % aqueous solution of methyl cellulose 400, 5×10^4 spheres smaller than 50 μm in diameter were cultured in 50 ml Falcon Flask coated with poly-D-lysine/laminin, and Aβ42 and Aβ40 of the supernatant were measured by EIA method on the second day (FIG. 29A) and the fourth day (FIG. 29B) of culture. The solvent was administered 12 hours after seeding.
smiles,measurement,setting,value
"N#Cc1ccccc1-c1cc(-c2ccccn2)cn(-c2ccccc2)c1=O [PER, 3-(2-cyanophenyl)-5-(2-pyridyl)-1-phenyl-1,2-dihydropyridine-2-one]",GluA1 in CA3 (BS3 crosslinking),GluA1,reduced GluA1 to basal levels
same,"Aβ accumulation in DG, CA1 and cerebral cortex",Aβ,decrease in Aβ accumulation
same,novel object recognition,NL-G-F mice,significantly distinguish
same,Aβ42/Aβ40 ratio of the culture supernatant,Aβ42/Aβ40,significantly increased
